Results published in patent publication US20020002269A1, “ARTEMIN, A NEUROTROPHIC FACTOR” (priority 1998, published 2002).

B1: GDNF: recombinant human mature GDNF obtained from Genentech (protein, UniProt P39905 78-211, looked up)
Glial cell line-derived …: SPDKQMAVLPRRERNRQAAAANPENSRGKGRRGQRGKNRGCVLTAIHLNVTDLGLGYETKEELIFRYCSGSCDAAETTYDKILKNLSRNRRLVSDKVGQACCRPIAFDDDLSFLDDNLVYHILRKHSAKRCGCI

Key:
[1] = test system: dorsal root ganglion (DRG) neurons; assay: Survival of cultured dorsal root ganglion neurons; type: cell-based, rat
Protocol: Each GDNF ligand family member consisted of the human mature amino acid sequence and was produced by standard recombinant DNA methods. Recombinant GDNF, neurturin and persephin were obtained from Genentech while recombinant artemin was produced as described in Example 3.
The cultures were performed using standard methods described elsewhere (Kotzbauer et al., Neuron 12:763-773, 1994; Kotzbauer et al., Nature 384:467-470, 1996; Milbrandt et al., Neuron 20:245-253, 1998). In brief, for SCG neurons, after dissection and dissociation, neurons were plated on collagen-coated 24-well tissue culture plates and maintained in NGF-containing medium (AM50) for 5 days, after which they were either kept in AM50 or switched to medium containing neutralizing anti-NGF antibodies plus GDNF, neurturin, persephin, artemin, (50 ng/ml where not noted otherwise), or no growth factors. Cultures were maintained for 3 days, after which they were fixed in 4% paraformaldehyde and stained with toluidine blue, and surviving neurons were counted. For nodose ganglion and dorsal root ganglion neuron cultures, dissociated neurons were plated directly into NGF (for dorsal root ganglia), or BDNF (for nodose ganglia, 100 ng/ml) or one of the GDNF ligands in serum-containing medium (AM50 with anti-NGF antibodies), and cells surviving after 3 days in culture were counted as above. Trigeminal ganglia were dissected, dissociated, and plated directly into medium containing NGF or the indicated GDNF ligands, and the number of surviving cells was assessed after 3 days in vitro. For all culture systems, 2-3 independent experiments were performed.

[2] = test system: GFRα1-Fc; assay: Direct binding of soluble GFRα1-Fc receptor body to plate-coated ligand; conditions: ligand coated at 325 ng/ml, absence of RET, FIG. 9C
Protocol: To investigate which if any of the known coreceptor(s) artemin can utilize to activate RET, its ability to directly bind to soluble Fc-fusion forms of GFRα1, GFRα2, or GFRα3 was assessed. GFRα1-Fc, GFRα2-Fc and GFRα3-Fc fusion proteins were obtained from R&D Systems. Binding assays were performed similarly to assays previously described (Sanicola et al., Proc. Natl. Acad. Sci., USA 94:6238-6243, 1997). Recombinant GDNF, neurturin, artemin, persephin, or purified bovine serum albumin (BSA; Pierce) were coated to Nunc-Immuno MaxiSorp microtiter plates at 325 ng/ml in TBS (10 mM Tris-HCl pH 7.5, 150 mM NaCl) for 1 hour at 25° C. Plates were washed (3× in TBS/0.03% Tween-20), and then blocked (blocking solution: TBS/1% BSA) for 1 hr at 25° C. Receptor bodies diluted in blocking solution were added and incubated for 2 hr at 25° C., washed 5X, then incubated with 1:10,000 dilution of HRP-conjugated anti-human Fc antibodies in blocking solution (Jackson Immunoresearch) for 45 minutes at 25° C. Finally, wells were washed 5× and the presence of HRP was assayed by addition of the chromogenic substrate 3,3, 5,5-tetramethylbenzidine for 5 min. The reaction was stopped by adding an equal volume of 0.5M H2SO4, and color was measured in a plate reader at 450 nm. Non-specific binding of receptor bodies to the plates was measured in BSA coated wells, and this binding was subtracted from all other measurements.

[3] = biological target: T1, GFRα3/RET (Homo sapiens, UniProt O60609+P07949); assay: Ga14-Elk/Ga14-Luc reporter in RET-3T3 fibroblasts transfected with GFRα3; type: cell-based; conditions: RET-3T3, 50 ng/ml for 6-8 hours, FIG. 10A
T1 construct: a fragment containing the complete coding region of human GFRα3 was PCR-amplified from a human pituitary cDNA library; expressed in transfected cells; host or cells: MG87 fibroblasts stably expressing human RET (RET-3T3), transiently transfected with pCB6-GFRα3
Protocol: Thus, to directly test which receptor combinations can form functional receptors for artemin, expression plasmids for the individual GFRA coreceptors together with the Ga14-Elk/Ga14-Luc reporter system were transiently transformed into fibroblasts that stably express RET. […]
NLF neuroblastoma cells, which naturally express GFRα2/RET (Tansey et al., submitted), or the RET-3T3 cells were plated at 85,000 cells/well in 12-well plates, and cotransfected with the reporter plasmids Ga14-Luc and CMV-Ga14-Elk (250 ng/well and 50 ng/well, respectively), CMV-lacZ (50 ng/well) for transfection normalization, one of the CMV-GFRA expression plasmids (500 ng/well), and pBluescript (650 ng/well) as carrier for a total of 1.5 μg DNA/well using the Superfect reagent (Qiagen) according to the manufacturer's instructions. […] Measurement of luciferase and β-galactosidase activity was measured using a luminometer and performed as described (Svaren et al., EMBO J 17:6010-6019, 1998). The average luciferase activity of duplicate samples was normalized to β-galactosidase activity of the cotransformed lacZ reporter, and fold activation was calculated by dividing the normalized activity in factor-treated cells by that in the no treatment control.

[4] = 50 ng/ml, 3 days in culture, FIG. 7A

T1 sequence (O60609 32-374 limits assumed): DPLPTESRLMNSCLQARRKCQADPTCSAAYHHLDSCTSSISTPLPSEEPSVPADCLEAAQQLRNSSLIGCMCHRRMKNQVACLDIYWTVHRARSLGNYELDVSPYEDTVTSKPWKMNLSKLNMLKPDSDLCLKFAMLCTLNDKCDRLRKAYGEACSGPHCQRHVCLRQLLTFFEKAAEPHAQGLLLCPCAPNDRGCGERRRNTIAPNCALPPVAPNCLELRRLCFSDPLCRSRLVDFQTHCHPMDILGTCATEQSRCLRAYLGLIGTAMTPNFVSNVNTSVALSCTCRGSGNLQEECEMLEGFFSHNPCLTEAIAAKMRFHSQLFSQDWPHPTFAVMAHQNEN
T1 sequence (P07949 29-1114): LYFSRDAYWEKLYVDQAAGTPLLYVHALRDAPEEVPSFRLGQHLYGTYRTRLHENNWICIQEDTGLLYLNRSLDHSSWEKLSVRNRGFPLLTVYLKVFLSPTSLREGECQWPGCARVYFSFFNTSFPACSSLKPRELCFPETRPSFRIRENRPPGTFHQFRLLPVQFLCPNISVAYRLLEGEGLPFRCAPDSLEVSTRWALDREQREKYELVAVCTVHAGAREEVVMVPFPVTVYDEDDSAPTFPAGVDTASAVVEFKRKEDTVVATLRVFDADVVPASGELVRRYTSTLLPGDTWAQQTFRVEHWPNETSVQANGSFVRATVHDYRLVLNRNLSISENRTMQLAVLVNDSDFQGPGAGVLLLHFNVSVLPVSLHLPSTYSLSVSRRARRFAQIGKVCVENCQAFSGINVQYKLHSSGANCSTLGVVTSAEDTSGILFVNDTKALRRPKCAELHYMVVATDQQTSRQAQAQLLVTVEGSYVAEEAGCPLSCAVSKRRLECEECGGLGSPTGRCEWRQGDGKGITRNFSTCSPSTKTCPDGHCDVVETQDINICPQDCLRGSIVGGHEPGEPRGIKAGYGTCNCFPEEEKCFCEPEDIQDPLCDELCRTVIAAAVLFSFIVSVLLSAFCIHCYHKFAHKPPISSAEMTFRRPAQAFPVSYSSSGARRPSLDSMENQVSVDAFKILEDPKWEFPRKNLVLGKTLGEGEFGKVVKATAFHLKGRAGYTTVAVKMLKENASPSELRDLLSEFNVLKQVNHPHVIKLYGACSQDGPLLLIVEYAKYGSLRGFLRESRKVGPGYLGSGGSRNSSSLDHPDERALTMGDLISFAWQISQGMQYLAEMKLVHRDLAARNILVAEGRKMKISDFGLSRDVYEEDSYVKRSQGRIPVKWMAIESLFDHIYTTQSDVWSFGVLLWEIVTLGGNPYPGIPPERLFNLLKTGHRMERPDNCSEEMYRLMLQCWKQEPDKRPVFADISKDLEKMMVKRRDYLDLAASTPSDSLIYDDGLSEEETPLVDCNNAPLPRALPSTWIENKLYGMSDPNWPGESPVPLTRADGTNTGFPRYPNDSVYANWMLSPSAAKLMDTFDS

Molecule | survival of DRG sensory neurons [1, 4] | number of DRG neurons supported compared with GDNF or neurturin ([1]; 50 ng/ml, FIG. 7A) | EC50 of survival promoting effect on DRG neurons ([1]; dose response, P1 rat DRG neurons, 3 days in culture, FIG. 7B) | EC50 ([1]; dose response, P1 rat DRG neurons, molar figure, FIG. 7B, read-out: EC50 of survival promoting effect on DRG neurons) | direct binding of GFRα1-Fc [2] | activation of RET signaling in cells expressing GFRα3/RET (luciferase reporter) [3]
artemin: recombinant mature human artemin (FIG. 3A, SEQ ID NO:3) with 8-histidine tag, produced in E. coli; GDNF family neurotrophic factor | supported the survival of a subset of sensory neurons | supported a larger number of neurons than GDNF or neurturin | 1 to 3 ng/mL | ~100 pM | not to persephin or artemin | able to activate GFRα3/RET
B1 | supported the survival of a subset of sensory neurons |  |  |  | able to bind to both GDNF and neurturin with similar affinity | not GFRα3/RET
